Experimental data as given in article PMC6882465, “Towards discovery of new leishmanicidal scaffolds able to inhibit Leishmania GSK-3” (Journal of Enzyme Inhibition and Medicinal Chemistry, 2019).

Molecular target: LdGSK-3 (Leishmania donovani, UniProt A6N857)
Assay: Inhibition of LdGSK-3 with Kinase Glo
Assay type: biochemical
Settings: for % inhibition @ 10µM (initial screening on LdGSK3): Table S2
Method: Assessment of inhibition of LdGSK-3 with Kinase Glo^TM
The reaction was allowed to proceed for 30 min at 30 °C, then it was incubated at room temperature for another 10 min after addition of Kinase Glo reagents (Promega, Ref. V6712). ATP consumption by LdGSK-3 was measured indirectly through end-point luminescence measurement of each well in a Varioskan Flash microplate reader (Thermo).

Sequence of LdGSK-3 (A6N857 entry or part of it): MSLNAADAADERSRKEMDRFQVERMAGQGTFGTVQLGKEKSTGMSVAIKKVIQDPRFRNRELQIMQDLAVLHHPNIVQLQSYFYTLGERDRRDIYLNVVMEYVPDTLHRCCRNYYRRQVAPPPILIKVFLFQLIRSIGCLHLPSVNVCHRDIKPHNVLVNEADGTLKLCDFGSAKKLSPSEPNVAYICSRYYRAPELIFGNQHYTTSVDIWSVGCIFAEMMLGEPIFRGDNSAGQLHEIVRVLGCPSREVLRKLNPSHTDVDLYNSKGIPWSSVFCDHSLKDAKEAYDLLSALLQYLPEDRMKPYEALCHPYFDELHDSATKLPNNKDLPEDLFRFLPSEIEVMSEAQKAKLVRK

SMILES | % inhibition @ 10µM (initial screening on LdGSK3) [%] | percentage of inhibition of LdGSK-3 (assayed at 10 µM)
COc1ccc(Cl)cc1CC(=O)Nc1n[nH]c(-c2ccccn2)n1 [Compound 122] | 3.95±2.45 | –
Cn1nc(C(=O)N2CCc3ccccc32)c2c1CCS(=O)(=O)C2 [Compound 30] | 5.20±1.90 | –
Oc1c(-c2n[nH]c(Cc3ccc(F)cc3)n2)ncc2cccnc12 [Compound 102] | 4.05±3.10 | –
Cc1ccc2onc(Nc3ccnc(Nc4cccc(S(C)(=O)=O)c4)n3)c2c1.O=C(O)C(F)(F)F [Compound 74] | 10.00±0.75 | –
Cc1nn(-c2ccccc2)nc1CNC(=O)CN(Cc1ccccn1)Cc1ccccn1.O=C(O)C(F)(F)F [Compound 144] | 9.10±1.75 | –
CCNc1cc(-c2ccccn2)nc(Nc2ccc(OC)cc2)n1 [Compound 45] | -2.50±5.50 | –
CC(c1cc(Cl)cc(Cl)c1)N(C)c1ncc2c(N)nc(N)nc2n1 (centres unmarked) [Compound 75] | 10.05±1.10 | –
CCOc1ccc(Nc2ccc(S(=O)(=O)N3CCN(C)CC3)cc2[N+](=O)[O-])cc1OCC [Compound 166] | 18.60±2.15 | –
Cl.NCc1ccc2c(Cl)cc(Cl)c(O)c2n1 [Compound 121] | 14.80±1.70 | –
c1ccc(-c2nc(NC3CCCC3)c3ccccc3n2)nc1 [Compound 92] | -0.55±1.25 | –
CC(C)c1nn(-c2nc(N)nc(-c3ccccn3)n2)c(N)c1C1CCCCC1 [Compound 94] | 10.45±0.55 | –
CCOc1ccccc1C(=O)Nc1nnc(-c2ccc3c(c2)OCO3)s1 [Compound 191] | 12.20±2.70 | –
NC(=O)c1ccsc1NC(=O)c1ccc([N+](=O)[O-])s1 [Compound 117] | 6.20±1.15 | –
Cc1cc(-c2cccc3ccccc23)nc2nc(N)nc(N)c12 [Compound 57] | 6.10±3.15 | –
COc1cccc(Nc2cc(C)nc(-c3ccccn3)n2)c1 [Compound 32] | 8.80±4.10 | –
CCN(CC)c1nc(N(C)C)nc2c1CN(Cc1ccccc1)CC2 [Compound 146] | 11.85±0.55 | –
Cc1nc2c(-c3nc(-c4ccccc4N)n[nH]3)cccn2c1C [Compound 113] | 1.40±0.50 | –
CCOc1ccc(CN(C)Cc2nc(N)nc(Nc3ccc(C)cc3)n2)cc1 [Compound 78] | 4.90±1.45 | –
Cc1nn(-c2nc3ccccc3[nH]2)c2c1C(c1ccc(O)cc1)CC(=O)N2 (centres unmarked) [Compound 120] | 18.15±1.70 | –
CNc1nc(C)nc(N2CCc3cc(C(=O)NCc4ccc(-c5ccn[nH]5)cc4Cl)ccc32)n1.O=C(O)C(F)(F)F [Compound 25] | -13.55±3.90 | –
COc1ccc2ncc(F)c(CCN3CC[C@@H](NC(=O)c4cc5c(s4)CCC5)[C@@H](O)C3)c2n1.Cl [Compound 173] | 8.60±2.90 | –
CC(C)(C)Nc1nc(Nc2ccc3c(c2)CS(=O)(=O)C3)nc2[nH]ccc12 [Compound 103] | 25.85±1.25 | –

SMILES | % inhibition @ 10µM (initial screening on LdGSK3) [%] | percentage of inhibition of LdGSK-3 (assayed at 10 µM)
Nc1cc(-c2ccc3ncnc(N4CCOCC4)c3c2)cnc1N [Compound 55] | 0.55±3.00 | –
O=C(CN1CCN(c2ccccn2)CC1)Nc1cc(S(=O)(=O)N2CCCCCC2)ccc1Cl [Compound 208] | 10.20±3.25 | –
NC(=O)c1cc(NC(=O)c2ccccc2COc2ccccc2)ccc1Cl [Compound 105] | -0.45±1.10 | –
Cc1nn(-c2nc(N)nc(-c3ccccn3)n2)c(N)c1-c1ccccc1.O=C(O)C(F)(F)F.O=C(O)C(F)(F)F [Compound 29] | 3.80±1.90 | –
COc1ccc(C2CC(c3ccc(NS(C)(=O)=O)cc3)=NN2C(=O)c2cccs2)cc1OC (centres unmarked) [Compound 156] | 11.90±1.75 | –
COc1ccc(Nc2nc(-c3ccccn3)cs2)c(OC)c1 [Compound 157] | 4.50±4.45 | –
O=C(CN(Cc1ccccn1)Cc1ccccn1)NCc1ccc2c(c1)OCO2.O=C(O)C(F)(F)F [Compound 193] | 2.65±4.15 | –
CN(Cc1nc2cccc(C(=O)N3CCN(Cc4ccccc4)CC3)c2[nH]1)C1CCCc2cccnc21.O=C(O)C(F)(F)F (centres unmarked) [Compound 91] | 12.65±6.10 | –
CN(CCOc1ccc(Cl)cc1)Cc1nc(N)nc(N(C)C)n1 [Compound 44] | -2.45±1.00 | –
Cc1ccc(Nc2nc(-c3ccccn3)cc(N3CCCC(O)C3)n2)cc1 (centres unmarked) [Compound 48] | 3.25±2.75 | –
O=C(CN1CCC2(O)CCCCC2C1c1ccc2c(c1)OCO2)Nc1ccc(Cl)cc1Cl (centres unmarked) [Compound 143] | 2.25±0.35 | –
COc1ccc(C2C3CCCCC3(O)CCN2CC(=O)Nc2ccc(Cl)cc2Cl)cc1 (centres unmarked) [Compound 194] | 0.90±4.25 | –
Cc1ccccc1CNc1cc(C2CC2)nc(-c2nccn2C)n1.O=C(O)C(F)(F)F [Compound 49] | 5.60±2.35 | –
CC1CCCN(S(=O)(=O)c2ccc(C(=O)Nc3nc(-c4ccccn4)cs3)cc2)C1 (centres unmarked) [Compound 202] | 6.50±2.15 | –
Nc1nc(-c2ccccc2)cc(-c2nc3ncccc3[nH]2)n1 [Compound 169] | 32.90±2.70 | –
COc1ccc2ncc(Cl)c(CCN3CC[C@H](NCc4cc5c(cn4)OCS5)[C@@H](O)C3)c2n1 [Compound 183] | 14.80±2.25 | –
CCCCN(C(=O)c1ccc(NC(=O)C(C)C)cc1)c1ccccc1 [Compound 168] | 14.15±2.15 | –
COCc1cc(Nc2ccccc2)nc(-c2ccccn2)n1 [Compound 35] | 2.90±4.05 | –
Cc1nc(C(=O)Nc2ccc3c(c2)OCO3)nn1-c1ccc(Cl)cc1 [Compound 149] | 8.90±2.10 | –
Cc1nc(N2CC(C)OC(C)C2)sc1C(=O)Nc1ccc2c(c1)OCO2 (centres unmarked) [Compound 209] | 16.10±4.80 | –
CC(=O)Nc1ccc(-c2csc(NC(=O)c3ccc([N+](=O)[O-])s3)n2)cc1 [Compound 141] | 8.55±0.55 | –
Cc1cc(NC(=O)c2ccc([N+](=O)[O-])s2)ccc1Br [Compound 186] | 3.65±2.60 | –

SMILES | % inhibition @ 10µM (initial screening on LdGSK3) [%] | percentage of inhibition of LdGSK-3 (assayed at 10 µM)
c1ccc(Nc2nc3ccccc3[nH]2)nc1 [Compound 40] | 13.50±3.10 | –
CC(CCc1ccccc1)NC(=O)CN(Cc1ccccn1)Cc1ccccn1.O=C(O)C(F)(F)F (centres unmarked) [Compound 134] | 5.25±1.70 | –
CCNc1cc(-c2ccccn2)nc(Nc2ccccc2)n1 [Compound 38] | 7.10±1.40 | –
Cn1c(CC(=O)NNC(=O)c2ccc3ccccc3n2)nc2ccccc21 [Compound 80] | 7.95±1.65 | –
COc1ccc(C(=O)[C@H]2C[C@@H]2CN(Cc2ccccn2)Cc2ccccn2)cc1 [Compound 107] | -4.05±3.20 | –
CN(C)c1ccc(N)cc1CN(CC1CCCO1)S(C)(=O)=O (centres unmarked) [Compound 136] | 13.95±3.25 | –
Cc1nc2c(-c3ncn[nH]3)cc(NC(=O)Cc3ccccc3)cn2c1C.O=CO [Compound 37] | 5.90±4.55 | –
Cc1ccc(-c2csc(NC(=O)C=Cc3ccc(S(=O)(=O)N4CCOCC4)cc3)n2)o1 [Compound 69] | 64.27±2.13 | higher than 50%
Cc1ccc(Nc2nc(N)nc(CNC(c3nc4ccccc4[nH]3)C(C)C)n2)cc1 (centres unmarked) [Compound 79] | 6.40±1.30 | –
COc1ccc(S(=O)(=O)Nc2ccc(C(=O)Nc3nc(-c4ccccn4)cs3)cc2)cc1 [Compound 175] | 16.65±1.70 | –
Cc1cccc(Nc2nc(-c3ccccn3)cs2)n1 [Compound 147] | 13.40±2.35 | –
Cc1ccc(NC(=O)c2ccc([N+](=O)[O-])s2)cc1S(=O)(=O)N1CCOCC1 [Compound 97] | 6.15±1.05 | –
COc1ccc(Cc2nc(-c3ncc4cccnc4c3O)n[nH]2)cc1OC [Compound 77] | 4.60±0.95 | –
Cc1nnc(-c2nc(NCc3ccc(Cl)cc3)c3cccnc3c2O)[nH]1 [Compound 31] | 8.20±1.70 | –
CCS(=O)(=O)c1cccc(C(=O)Nc2nc(-c3ccccn3)cs2)c1 [Compound 165] | 4.70±0.85 | –
O=C(Nc1ccc(C(F)(F)F)cc1)Nc1cccc([N+](=O)[O-])c1 [Compound 185] | 1.70±0.75 | –
COc1cccc(CN(C)Cc2nc(N)c3c(C)c(C)sc3n2)c1 [Compound 81] | 6.35±3.00 | –
O=C(c1cccc(Nc2ncc(-c3ccc4c(c3)OCO4)cn2)c1)N1CCSC1 [Compound 140] | 18.20±7.00 | –
CC1CN(Cc2ccc(C#N)cc2)CCN1c1ccc(NC(=O)c2ccccc2F)cc1.O=C(O)C(F)(F)F.O=C(O)C(F)(F)F (centres unmarked) [Compound 199] | 8.70±1.75 | –
c1ccc(Nc2nc(-c3ccccn3)cc(N3CCOCC3)n2)cc1 [Compound 34] | -2.00±2.70 | –
